Assays:
[1] = test system: flies expressing polyQ-expanded AR in motor neurons (OK371>UAS-AR52Q); test: Locomotor activity of adult SBMA flies; assay type: in vivo, Drosophila; settings: 1 mM DHT+100 μM compound
Excerpt: UAS-AR52Q, UAS-AR52Q-K720A, and UAS-AR66Q-E897K fly stocks were generated as previously described^8. Fly stocks were crossed to various GAL4 driver lines (ELAV-GAL4 for pan-neuronal, OK371-GAL4 for motor neuron, GMR-GAL4 for eye) to induce expression of the AR transgene in a tissue-specific manner in fly vials containing fly food with either vehicle (1% ethanol +/−0.1% DMSO) or drugs. Upon the presence of progeny, parental flies were removed, and F1 flies were scored for phenotypic analysis. Viability was determined as previously described^40. Briefly, the population frequency of adult F1 SBMA flies (ELAV>UAS-AR52Q or OK371>UAS-AR52Q) and control flies (GAL4-ELAV; CyO-GFP) were determined by the presence or absence of the CyO phenotypic marker. At least three independent biological replicates (F0 crosses) were performed with new drug/food preparations for each treatment group, and a total of at least 50 flies were scored for each treatment group. To determine locomotor activity of SBMA flies, adult F1 flies (OK371>UAS-AR52Q) reared on food containing vehicle or drug were allowed to walk for 90 seconds in one well of a 12-well tissue culture plate while video was recorded using a Leica M205C stereomicroscope and Leica DFC320 digital camera. Videos were recorded for at least 15 flies per treatment group. […]

[2] = test system: polyQ-expanded AR (AR24Q or AR65Q); test: AR transcriptional activity ARE-luciferase reporter assay in HEK293T cells; assay type: cell-based, human
Method: To determine AR-dependent transcriptional activity, HEK293T cells were transiently transfected in culture media containing 10% charcoal-dextran stripped serum with ARE-firefly luciferase and CMV-Renilla luciferase (Cignal ARE Reporter Assay Kit, Qiagen), in addition to either FLAG-AR24Q or FLAG-AR65Q (gift from Maria Pennuto). […] Firefly and Renilla luciferase substrates (Dual-Luciferase Reporter Assay, Promega) were added, and luciferase activity was measured using a microplate spectrophotometer (BioTek). Mammalian two-hybrid assays were performed by transiently transfecting HEK293T cells with pG5Luc firefly luciferase reporter (Checkmate Mammalian Two-Hybrid kit, Promega), CMV-Renilla luciferase (Cignal ARE Reporter Assay Kit, Qiagen), and GAL4 DBD-AR LBD (gift from Elizabeth Wilson), in addition to either VP16 empty vector, VP16-NCoR, or VP16-SMRT (gifts from Vivian Bardwell) for 24 h. […] Renilla and firefly luciferase were quantified using Dual-Luciferase Reporter Assay (Promega) and a microplate spectrophotometer (BioTek).

`Cc1ccc(OCCn2c(SCCOc3ccccc3)nc3ccccc32)cc1` [MEPB, 1-[2-(4-methylphenoxy)ethyl]-2-[(2-phenoxyethyl)sulfanyl]-1H-benzimidazole] was tested, and the “locomotor function (displacement and velocity of walking)” value [1] was “significantly restored locomotor function”, the “transcriptional activity at high concentrations” value ([2]; 100 μM compound) was “trend of reduced transcriptional activity” and the “transactivational capacity of polyQ-expanded AR” value ([2]; dual luciferase reporter, 24 h treatment) was “not significantly altered”.

Source: patent US11707449B2, “Methods and formulations for treatment of spinobulbar muscular atrophy” (ST. JUDE CHILDREN'S RESEARCH HOSPITAL, INC., priority 2017, dated 2023)
